Reference: the supplement of paper PMC8612539
≈ marks a conversion by molar mass, not a printed value.

Test system: Pasteurella multocida
Assay: minimum inhibitory concentration (MIC)
Method: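 Broth microdilution MIC (Sensititre BOPO7F bovine plate, CLSI methods) of 19 antimicrobials against field isolates of P. multocida, M. haemolytica, H. somni (deep nasopharyngeal swabs) and E. coli, Enterococcus spp. (rectal swabs) from weaned dairy heifers. Incubation 16-24 h at 35 C. MIC is the lowest concentration preventing visible growth. Values with <= or > lie at the tested range limits. Trimethoprim-sulfamethoxazole is given as the trimethoprim component of a 1:19 mixture.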

C=C[C@]1(C)C[C@@H](OC(=O)CSCCN(CC)CC)[C@]2(C)[C@H](C)CC[C@]3(CCC(=O)[C@H]32)[C@@H](C)[C@@H]1O [Tiamulin]
Settings | minimum inhibitory concentration [µg/mL]
isolate (source animal id): 10 | 16 (≈ 32.4 µM)
isolate (source animal id): 11 | 16 (≈ 32.4 µM)
isolate (source animal id): 12 | 16 (≈ 32.4 µM)
isolate (source animal id): 19 | 16 (≈ 32.4 µM)
isolate (source animal id): 23 | 16 (≈ 32.4 µM)
isolate (source animal id): 26 | 32 (≈ 64.8 µM)
isolate (source animal id): 98 | 32 (≈ 64.8 µM)
isolate (source animal id): 104 | 32 (≈ 64.8 µM)
isolate (source animal id): 115 | 32 (≈ 64.8 µM)
isolate (source animal id): 117 | 32 (≈ 64.8 µM)
isolate (source animal id): 118 | 32 (≈ 64.8 µM)
isolate (source animal id): 121 | 32 (≈ 64.8 µM)
isolate (source animal id): 124 | 32 (≈ 64.8 µM)
isolate (source animal id): 125 | 32 (≈ 64.8 µM)
isolate (source animal id): 128 | 32 (≈ 64.8 µM)
isolate (source animal id): 131 | 32 (≈ 64.8 µM)
isolate (source animal id): 135 | 16 (≈ 32.4 µM)
isolate (source animal id): 136 | 32 (≈ 64.8 µM)
isolate (source animal id): 140 | 32 (≈ 64.8 µM)
isolate (source animal id): 144 | 32 (≈ 64.8 µM)
isolate (source animal id): 146 | 32 (≈ 64.8 µM)
isolate (source animal id): 150 | 32 (≈ 64.8 µM)
isolate (source animal id): 151 | 32 (≈ 64.8 µM)
isolate (source animal id): 153 | 32 (≈ 64.8 µM)
isolate (source animal id): 155 | 32 (≈ 64.8 µM)
isolate (source animal id): 157 | 16 (≈ 32.4 µM)
isolate (source animal id): 160 | 32 (≈ 64.8 µM)
isolate (source animal id): 164 | 32 (≈ 64.8 µM)
isolate (source animal id): 165 | 32 (≈ 64.8 µM)
isolate (source animal id): 167 | 32 (≈ 64.8 µM)
isolate (source animal id): 168 | 32 (≈ 64.8 µM)
isolate (source animal id): 169 | 16 (≈ 32.4 µM)
isolate (source animal id): 170 | 32 (≈ 64.8 µM)
isolate (source animal id): 171 | 32 (≈ 64.8 µM)
isolate (source animal id): 172 | 32 (≈ 64.8 µM)
isolate (source animal id): 173 | 32 (≈ 64.8 µM)
isolate (source animal id): 174 | 16 (≈ 32.4 µM)
isolate (source animal id): 175 | 32 (≈ 64.8 µM)
isolate (source animal id): 176 | 16 (≈ 32.4 µM)
isolate (source animal id): 177 | 32 (≈ 64.8 µM)
isolate (source animal id): 178 | 32 (≈ 64.8 µM)
isolate (source animal id): 179 | 32 (≈ 64.8 µM)
isolate (source animal id): 182 | 32 (≈ 64.8 µM)
isolate (source animal id): 192 | 32 (≈ 64.8 µM)
isolate (source animal id): 193 | 32 (≈ 64.8 µM)
isolate (source animal id): 195 | 32 (≈ 64.8 µM)
isolate (source animal id): 196 | 32 (≈ 64.8 µM)
isolate (source animal id): 197 | 32 (≈ 64.8 µM)
isolate (source animal id): 198 | 32 (≈ 64.8 µM)
isolate (source animal id): 199 | 32 (≈ 64.8 µM)
isolate (source animal id): 200 | 32 (≈ 64.8 µM)
isolate (source animal id): 201 | 32 (≈ 64.8 µM)
isolate (source animal id): 203 | 16 (≈ 32.4 µM)
isolate (source animal id): 204 | 32 (≈ 64.8 µM)
isolate (source animal id): 205 | 32 (≈ 64.8 µM)
isolate (source animal id): 206 | 32 (≈ 64.8 µM)
isolate (source animal id): 207 | 32 (≈ 64.8 µM)
isolate (source animal id): 208 | 16 (≈ 32.4 µM)
isolate (source animal id): 209 | 16 (≈ 32.4 µM)
isolate (source animal id): 210 | 32 (≈ 64.8 µM)
isolate (source animal id): 213 | 16 (≈ 32.4 µM)
isolate (source animal id): 216 | 32 (≈ 64.8 µM)
isolate (source animal id): 223 | 16 (≈ 32.4 µM)
isolate (source animal id): 227 | 16 (≈ 32.4 µM)
isolate (source animal id): 229 | 32 (≈ 64.8 µM)
isolate (source animal id): 233 | > 32
isolate (source animal id): 234 | 32 (≈ 64.8 µM)
isolate (source animal id): 237 | 32 (≈ 64.8 µM)
isolate (source animal id): 241 | 32 (≈ 64.8 µM)
isolate (source animal id): 245 | 32 (≈ 64.8 µM)
isolate (source animal id): 247 | 32 (≈ 64.8 µM)
isolate (source animal id): 250 | 32 (≈ 64.8 µM)
isolate (source animal id): 254 | 32 (≈ 64.8 µM)
isolate (source animal id): 255 | 16 (≈ 32.4 µM)
isolate (source animal id): 258 | 32 (≈ 64.8 µM)
isolate (source animal id): 261 | 32 (≈ 64.8 µM)
isolate (source animal id): 262 | 32 (≈ 64.8 µM)
isolate (source animal id): 269 | 32 (≈ 64.8 µM)
isolate (source animal id): 270 | 32 (≈ 64.8 µM)
isolate (source animal id): 274 | 32 (≈ 64.8 µM)
isolate (source animal id): 275 | 32 (≈ 64.8 µM)
isolate (source animal id): 276 | 32 (≈ 64.8 µM)
isolate (source animal id): 277 | 32 (≈ 64.8 µM)
isolate (source animal id): 278 | 32 (≈ 64.8 µM)
isolate (source animal id): 279 | 32 (≈ 64.8 µM)
isolate (source animal id): 280 | 32 (≈ 64.8 µM)
isolate (source animal id): 284 | 32 (≈ 64.8 µM)
isolate (source animal id): 285 | 32 (≈ 64.8 µM)
isolate (source animal id): 287 | 32 (≈ 64.8 µM)
isolate (source animal id): 290 | 32 (≈ 64.8 µM)
isolate (source animal id): 294 | 32 (≈ 64.8 µM)
isolate (source animal id): 295 | > 32
isolate (source animal id): 296 | 32 (≈ 64.8 µM)
isolate (source animal id): 307 | 32 (≈ 64.8 µM)
isolate (source animal id): 310 | > 32
isolate (source animal id): 311 | > 32
isolate (source animal id): 312 | 32 (≈ 64.8 µM)
isolate (source animal id): 313 | 32 (≈ 64.8 µM)
isolate (source animal id): 315 | 32 (≈ 64.8 µM)
isolate (source animal id): 316 | 32 (≈ 64.8 µM)
